Assay [1] relates to Intercellular Adhesion Molecule-1 (ICAM-1). Briefly: Assay C: ICAM-1 mRNA, TaqMan. To be noted: aldosterone+salt alone or with eplerenone 100 mg/kg/day; 7, 14, 30 days. It is filed as in vivo, rat. As for the experimental part: (§1) The procedure of Assay B was expanded upon in a further study. […] Myocardial tissue from animals in each treatment group was examined after 7, 14, or 30 days of treatment.
(§2) Potassium chloride supplementation was added to the saline solution in order to prevent the potential hypokalemia associated with aldosterone excess.
(§3) Treatment At the time of the surgery, an Alzet 2002 osmotic minipump (Alza Corp., Palo Alto, Calif.) containing either vehicle (9% ethanol/87% propylene glycol/4% dH2O) or 1.0 mg/mL d-aldosterone (Sigma Chemical, St. Louis, Mo.) was inserted subcutaneously at the nape of the neck. Aldosterone was administered at a dose of 0.75 µg/hour. […]
(§4) The fluorogenic 5′-nuclease assay (TaqMan PCR) using Applied Biosystems' 7700 Sequence Detection System (Applied Biosystems, Foster City, Calif.) allowed for real time detection/quantitation of a specific gene by monitoring the increase in fluorescence of a gene-specific, dye-labeled oligonucleotide probe. […] When the probe was annealed to the target gene, fluorescence of 6FAM was prevented by the close proximity of TAMRA. The exonuclease activity of Taq polymerase released the dyes from the oligonucleotide probe by displacing the probe from the target sequence resulting in fluorescence excitation in direct proportion to the amount of target message present. […]

Assay [2] deals with Atrial natriuretic factor (ANP). Briefly: Assay C: ANP mRNA in left ventricle, TaqMan. It is filed as in vivo, rat. Conditions: aldosterone+salt alone or with eplerenone 100 mg/kg/day; 7, 14, 30 days. As to the method:
as §1, §2, §3, §4

Entries after “also recorded” stand apart in the source; their conditions may differ.

Take `COC(=O)[C@@H]1CC2=CC(=O)CC[C@]2(C)[C@@]23O[C@@H]2C[C@@]2(C)[C@@H](CC[C@@]24CCC(=O)O4)[C@H]13` [eplerenone]: the “ICAM-1 mRNA expression in myocardium” value in assay [1] was “significantly reduced; also recorded: inhibition of early time-course expression of myocardial ICAM-1 and VCAM-1”. In addition, the “Atrial natiuretic peptide (ANP) mRNA levels” value in assay [2] is given as “significantly reduced by eplerenone after 30 days of treatment but not after 14 days”.

Regarding `C[C@]12CCC(=O)C=C1CC[C@@H]1[C@@H]2[C@@H](O)C[C@]2(C=O)[C@@H](C(=O)CO)CC[C@@H]12` [aldosterone], the “ICAM-1 mRNA expression in myocardium” value in assay [1] is “upregulated at day 14 and 30”. In addition, the “Atrial natiuretic peptide (ANP) mRNA levels” value in assay [2] is on record as “Significant elevations”.

(Values after patent publication US20040037806A1, “Aldosterone blocker therapy to prevent or treat inflammation-related disorders” (Pharmacia Corporation, priority 2002, published 2004).)
